Experimental data published in patent US20130143964A1, “S[…], AND COSMETIC COMPOSITION, FOOD, AND SUNDRY ARTICLE CONTAINING THE SAME” (priority 2010, published 2013).

System: activity of the sympathetic nerve
Assay: Test of measuring sympathetic nerve activity: power spectrum analysis of systolic blood pressure fluctuation (SBP-LF) when smelling the aroma
Type: in vivo, human test subjects
Description: The test samples were prepared by diluting ethyl 4-methoxybenzoate with ethanol to a concentration of 0.1 mass %, and how the aromas of those test samples influenced the sympathetic nerve activity was tested.
(Test Method of Measuring Sympathetic Nerve Activity)
A heart beat interval or blood pressure constantly change in a complex manner even at rest, and is under control of multiple nervous systems representing the sympathetic nerve and the parasympathetic nerve. Thus, it is known that the activity of respective nervous systems can be calculated by analyzing the frequency of a heart beat interval variation (a heart beat interval fluctuation) or a blood pressure variation (a blood pressure fluctuation). […] The activity of the sympathetic nerve is quantified from the intensity of the low frequency component (SBP-LF), and an influence of an aroma given off from the test sample on the activity of the sympathetic nerve was evaluated. […]
A tonometry sensor was fitted at a carpal radius […] of a test subject, and is connected to a patient monitor for continuous measurement of blood pressure. […] Continuously measured blood pressure data was taken in a personal computer to undergo power spectrum analysis of the blood pressure fluctuation in systole using automatic nervous system activity analytical software. […]

CCOC(=O)c1ccc(OC)cc1 [ethyl 4-methoxybenzoate] was tested, and the “activity of the sympathetic nerve (determination from SBP-LF ratio)” value (six test subjects in their 20's smelling aroma of 0.1 mass % test sample) was “the activity of the sympathetic nerve quieted down” and the “SBP-LF ratio (SBP-LF value when smelling the aroma divided by SBP-LF value when not smelling the aroma)” value (six test subjects in their 20's, 0.1 mass % in ethanol, 20 μl soaked into cotton stuck below the nose, ethanol volatilized, 25° C., humidity 45%) was “smaller than 1”.
